In patent US20250275948A1, “(N-[4-(2,3-DIHYDRO-1H-INDEN-5-YL)-1,3-THIAZOL-2-YL]-2-[4-METHYL-4-(NAPHTHALEN-2-YL)-2,5-DIOXOIMIDAZOLIDIN-1-YL]ACETAMIDE AS STABILIZER OF CLOCK:BMAL1 INTERACTION FOR THE TREATMENT OF CIRCADIAN RHYTHM DISEASES AND DISORDERS” (KOC UNIVERSITESI, priority 2022, published 2025):

What was measured:
CLOCK:BMAL1 complex = target: T1, CLOCK:BMAL1 complex (Homo sapiens, UniProt O00327+O15516); experiment: Pull-down assay with biotinylated-CLK95; format: binding; details: 20 μM bCLK95 bait, 200 μM CLK95 competitor; HEK 293T and U2OS lysates
T1 construct: expressed in transfected cells; host or cells: HEK 293T
Method: To perform pull-down assay HEK 293T cells were transiently transfected with either 10 μg pCMV-Sport6-CLOCK or 10 μg pCMV-Sport6-Bmal1 plasmids. First, cells were seeded in a 10 cm cell culture dish at a density which will give ˜70-80% confluency next day. Then cells were transfected with 10 μg of the appropriate plasmid using 30 μL PEI in 1 mL DMEM. Cells were harvested 24 hours post-transfection and divided into four 1.5 mL centrifuge tubes. The conditions that were employed to probe the binding of the molecule to proteins contained a) only CLOCK overexpressed, b) only BMAL1 overexpressed and c) CLOCK-BMAL1 overexpressed mixtures. Pellet for each condition was lysed with 500 μL Lysis Buffer (50 mM Tris-HCl PH 7.4, 2 mM EDTA, 1 mM MgCl2, 0.2% NP-40, 1 mM Na3VO4, 1 mM NaF, 1×PIC) and incubated on ice for 20 minutes. Then samples were centrifuged at 7000×g for 10 minutes at 4° C. The supernatants of the CLOCK and BMAL1 lysates were mixed at 1:1 ratio. Following this step, collected lysate mixture was mixed with 2× binding buffer (100 mM Tris-HCl pH 7.4, 300 mM NaCl, 0.2% NP-40, 2 mM Na3VO4, 2 mM NaF, 2×PIC) at 1:1 ratio. […]

[1] = tested on: WT, Clock knockout and Bmal1 knockout MEF cells; experiment: Circadian rhythm monitoring in WT, Clock KO and Bmal1 KO MEF cells transduced with Bmal1-dLuc; format: cell-based, mouse; details: WT vs Clock KO vs Bmal1 KO MEF cells
Method: Wild type (WT), Clock knockout (KO), and Bmal1 KO mouse embryonic fibroblast (MEF) cells were transduced with Bmal1-dLuc lentiviral particles to enable us to monitor the effect of CLK95 on circadian oscillation. To this end, virus particles were produced as follow: HEK 293T cells were transfected with 10 μg pLV6-Bmal1-dluc, 9 μg pCMV-ΔR8.2dvpr packaging and lug pCMV-VSVG envelope vectors at ˜70-80% confluency. The plasmid cocktail was mixed with 20 μL PEI in 400 μL DMEM and incubated at room temperature for 10 minutes and cells were transfected. After 16 hours of incubation at 37° C. under 5% CO2, 3 mL fresh D10 medium were added to plates. 48 hours after transfection, cell medium was replaced with 8 mL fresh D10 medium. Lentiviral particles were harvested at 72 and 96 hours post transfection. Collected particles were filtered through 0.45 μM syringe filter and aliquoted (750 μL) for storage at −80° C. for further use.
WT, Clock KO, and Bmal1 KO MEF cells were transduced with Bmal1-dluc lentiviral particles as follow: Cells were seeded in 35 mm cell culture plates at the density of 1×10^5 cell/plate. […] 72-hours post-transduction cells were synchronized with Dexamethasone (0.1 μM) and prepared for luminescence recording of the circadian oscillation as indicated at section 3.4

CLOCK and BMAL1 = experiment: Effect on core clock protein levels (western blot), U2OS Bmal1-dLuc cells; format: cell-based, human; details: unsynchronized U2OS Bmal1:dLuc cells, 24 hours
Method: The effect of CLK95 on core-clock proteins was assessed both on synchronized and unsynchronized U2OS Bmal1-dLuc cells. Cells were seeded into 6 well-plates with a density of 45×10^4 cell/well and incubated at 37° C. under 5% CO2 for 16 hours. For unsynchronized cells, they were treated with appropriate amounts CLK95 (final 0.25% DMSO) and further incubated for 24 hours. For synchronized cells, cell media was exchanged with 0.1 μM Dexamethasone containing DMEM. After synchronization, cells were subjected to the CLK95 (final 0.25% DMSO). After 24 hours of incubation, cells were harvested with 6 hours intervals for 7 time points (24H-60H). Then harvested cells were lysed with 90 μL RIPA buffer (50 mM Tris-HCl pH 7.4, 150 mM NaCl, 1% Triton x-100, 0.1% SDS, 1×PIC) and left for an incubation on ice for 30 minutes. Following, samples were centrifugated at 15000×g for 20 minutes at 4° C. After boiling samples with Laemmli buffer for 7 minutes at 95° C., 10 μg of protein was loaded for each sample to 10% SDS-polyacrylamide gel. For Western blot analysis following antibodies used to determine the level of core clock proteins: anti-CLOCK (Bethyl, A302-618A), anti-BMAL1 (Santa Cruz Biotech., SC-365645), anti-PER2 (Proteintech, 67513-1-Ig), anti-CRY1 (Bethyl, A302-614A), and anti-β-Actin (Cell Signaling, 8H10D10) antibodies.

T1 sequence (O15516 whole entry): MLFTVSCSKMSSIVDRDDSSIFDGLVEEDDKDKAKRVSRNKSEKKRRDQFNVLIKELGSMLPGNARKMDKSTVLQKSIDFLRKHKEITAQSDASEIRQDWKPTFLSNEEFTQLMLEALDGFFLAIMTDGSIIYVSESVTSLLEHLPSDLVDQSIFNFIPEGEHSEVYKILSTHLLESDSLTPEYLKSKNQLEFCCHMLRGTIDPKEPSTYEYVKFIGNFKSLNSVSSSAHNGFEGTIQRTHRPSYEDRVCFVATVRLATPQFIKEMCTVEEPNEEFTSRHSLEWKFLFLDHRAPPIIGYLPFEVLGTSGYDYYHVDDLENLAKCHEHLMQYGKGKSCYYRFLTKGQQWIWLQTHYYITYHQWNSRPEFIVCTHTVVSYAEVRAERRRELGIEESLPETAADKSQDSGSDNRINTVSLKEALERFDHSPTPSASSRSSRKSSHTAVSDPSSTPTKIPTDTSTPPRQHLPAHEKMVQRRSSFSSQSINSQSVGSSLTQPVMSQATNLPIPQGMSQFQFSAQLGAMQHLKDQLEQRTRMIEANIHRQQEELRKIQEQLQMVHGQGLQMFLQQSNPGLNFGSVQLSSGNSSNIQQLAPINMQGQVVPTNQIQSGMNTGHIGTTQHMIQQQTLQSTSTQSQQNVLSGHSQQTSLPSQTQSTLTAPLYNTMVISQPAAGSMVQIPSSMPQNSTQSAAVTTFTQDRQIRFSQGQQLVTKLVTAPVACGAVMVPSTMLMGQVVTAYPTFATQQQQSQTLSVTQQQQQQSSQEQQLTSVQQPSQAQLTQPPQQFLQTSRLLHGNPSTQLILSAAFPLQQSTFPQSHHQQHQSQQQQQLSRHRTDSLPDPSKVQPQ
T1 sequence (O00327 whole entry): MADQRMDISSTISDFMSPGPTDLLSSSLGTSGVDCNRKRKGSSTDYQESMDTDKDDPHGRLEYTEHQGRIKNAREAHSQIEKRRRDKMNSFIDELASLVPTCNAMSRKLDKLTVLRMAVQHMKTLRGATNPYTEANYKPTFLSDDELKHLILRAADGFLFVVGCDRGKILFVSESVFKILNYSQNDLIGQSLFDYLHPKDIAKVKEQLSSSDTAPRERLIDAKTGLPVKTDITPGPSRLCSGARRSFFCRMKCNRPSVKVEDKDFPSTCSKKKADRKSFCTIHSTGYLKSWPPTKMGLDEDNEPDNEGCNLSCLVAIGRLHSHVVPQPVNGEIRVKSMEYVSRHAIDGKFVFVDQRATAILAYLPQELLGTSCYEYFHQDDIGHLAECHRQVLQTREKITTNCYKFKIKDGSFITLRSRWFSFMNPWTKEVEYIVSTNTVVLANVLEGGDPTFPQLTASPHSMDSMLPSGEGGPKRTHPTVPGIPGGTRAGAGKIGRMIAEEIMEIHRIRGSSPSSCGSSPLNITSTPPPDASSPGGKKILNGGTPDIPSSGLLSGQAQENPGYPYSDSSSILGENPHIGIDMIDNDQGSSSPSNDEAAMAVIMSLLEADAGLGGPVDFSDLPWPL

CC1(c2ccc3ccccc3c2)NC(=O)N(CC(=O)Nc2nc(-c3ccc4c(c3)CCC4)cs2)C1=O (stereo not drawn) [CLK95]
binding in pull-down (CLOCK:BMAL1 complex): specifically binding to CLOCK:BMAL1 complex
dependence of circadian phenotype on CLOCK and BMAL1 [1]: effecting the circadian phenotype through CLOCK and BMAL1
CLOCK and BMAL1 protein levels (CLOCK and BMAL1): increased
